Experimental data taken from patent US11053248B2, “[1,2,4]triazolo[1,5-a]pyrimidine compounds as PDE2 inhibitors” (Janssen Pharmaceutica NV, priority 2016, dated 2021).
Where two headings read alike, the source gives them in different places.

Columns and labels:
hPDE10A2 = hPDE10A2 (Homo sapiens, UniProt Q9Y233); assay: biochemical; conditions: for IC50: 60 nM cAMP substrate, read-out: hPDE10A2 pIC50 (converted); for Emax: read-out: hPDE10A2 Emax
Protocol: Rat recombinant PDE10A (rPDE10A2) was expressed in Sf9 cells using a recombinant rPDE10A baculovirus construct. Cells were harvested after 48 h of infection and the rPDE10A protein was purified by metal chelate chromatography on Ni-sepharose 6FF. Tested compounds were dissolved and diluted in 100% DMSO to a concentration 100 fold of the final concentration in the assay. Human recombinant PDE10A […] was expressed in Sf9 cells using a recombinant hPDE10A baculovirus that was made and amplified in house. Cells were harvested after 72 h of infection and the hPDE10A protein was purified by metal chelate chromatography on Ni-sepharose. Compound dilutions (0.4 μl) were added in 384 well plates to 20 μl of incubation buffer (50 mM Tris pH 7.8, 8.3 mM MgCl2, 1.7 mM EGTA). […] of rPDE10A or hPDE10A enzyme in incubation buffer was added and the reaction was started by addition of 10 μl substrate to a final concentration of 60 nM cAMP and 0.008 μCi ^3H-cAMP. The reaction was incubated for 60 minutes at room temperature. […] After sedimentation of the beads during 30 minutes the radioactivity was measured in a Perkin Elmer Topcount scintillation counter and results were expressed as cpm. For blanc values the enzyme was omitted from the reaction and replaced by incubation buffer. Control values were obtained by addition of a final concentration of 1% DMSO instead of compound.

hPDE2A = target: T1, hPDE2A (Homo sapiens, UniProt O00408); assay: In vitro assay PDE2A (SPA, 3H-cGMP); assay type: biochemical; conditions: for Emax: read-out: hPDE2A Emax
T1 construct: made in house; host or cells: Sf9 insect cells (baculovirus)
Protocol: Human recombinant PDE2A (hPDE2A) was expressed in Sf9 cells using a recombinant rPDE10A baculovirus construct. Cells were harvested after 48 h of infection and the hPDE2A protein was purified by metal chelate chromatography on Ni-sepharose 6FF. Tested compounds were dissolved and diluted in 100% DMSO to a concentration 100 fold of the final concentration in the assay. Compound dilutions (0.4 μl) were added in 384 well plates to 20 μl of incubation buffer (50 mM Tris pH 7.8, 8.3 mM MgCl2, 1.7 mM EGTA). 10 μl of hPDE2A enzyme in incubation buffer was added and the reaction was started by addition of 10 μl substrate to a final concentration of 10 μM cGMP and 0.01 μCi ^3H-cGMP. The reaction was incubated for 45 minutes at room temperature. […] After sedimentation of the beads during 30 minutes the radioactivity was measured in a Perkin Elmer Topcount scintillation counter and results were expressed as cpm. For blanc values the enzyme was omitted from the reaction and replaced by incubation buffer. Control values were obtained by addition of a final concentration of 1% DMSO instead of compound.

PDE2A = target: T2, PDE2A (Rattus norvegicus, UniProt Q01062); assay: PDE2 occupancy by ex-vivo autoradiography with [3H]B-17a; assay type: in vivo; conditions: rat
T2 construct: from tissue; host or cells: rat brain striatal sections (ex vivo)
T2 sequence (Q01062 1-928): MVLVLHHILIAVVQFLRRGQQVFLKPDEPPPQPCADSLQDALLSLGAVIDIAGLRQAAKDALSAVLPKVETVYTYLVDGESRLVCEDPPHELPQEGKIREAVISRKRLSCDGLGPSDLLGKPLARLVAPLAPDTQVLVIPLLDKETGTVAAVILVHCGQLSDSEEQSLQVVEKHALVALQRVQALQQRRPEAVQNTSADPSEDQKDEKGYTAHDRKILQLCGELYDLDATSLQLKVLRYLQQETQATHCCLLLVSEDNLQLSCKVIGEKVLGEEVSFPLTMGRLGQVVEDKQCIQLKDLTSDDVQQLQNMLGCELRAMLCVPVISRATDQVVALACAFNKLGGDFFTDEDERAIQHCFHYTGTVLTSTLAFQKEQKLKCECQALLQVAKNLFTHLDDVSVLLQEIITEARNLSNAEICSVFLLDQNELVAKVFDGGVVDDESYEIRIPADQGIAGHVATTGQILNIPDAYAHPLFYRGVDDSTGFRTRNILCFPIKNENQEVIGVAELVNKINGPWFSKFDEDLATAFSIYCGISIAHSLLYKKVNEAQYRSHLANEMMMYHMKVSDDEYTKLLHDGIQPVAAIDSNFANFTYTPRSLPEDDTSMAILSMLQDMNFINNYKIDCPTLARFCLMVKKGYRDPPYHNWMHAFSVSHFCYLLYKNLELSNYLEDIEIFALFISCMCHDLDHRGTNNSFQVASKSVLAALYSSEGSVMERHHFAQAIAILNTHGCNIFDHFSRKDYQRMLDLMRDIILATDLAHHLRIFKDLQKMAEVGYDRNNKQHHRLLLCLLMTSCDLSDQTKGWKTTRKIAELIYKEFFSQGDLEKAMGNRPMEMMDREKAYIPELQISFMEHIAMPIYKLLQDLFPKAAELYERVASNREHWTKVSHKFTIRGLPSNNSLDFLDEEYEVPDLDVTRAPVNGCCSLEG
Protocol: PDE2 Occupancy by Test Compounds Methods
Brains were immediately removed from the skull and rapidly frozen in dry-ice cooled 2-methylbutane (−40° C.).
After thawing, sections were dried under a cold stream of air and incubated for one minute with 30 nM [^3H]B-17a in Tris-HCl (50 mM, pH7.4) containing 0.3% BSA. Brain sections from drug-treated and vehicle-treated animals were incubated in parallel. […] After incubation, the excess of [^3H]B-17a was washed off in ice-cold buffer 2 times 10 minutes, followed by a quick dip in distilled water. The sections were then dried under a stream of cold air.
Brain sections were loaded in a β-imager (Biospace, Paris) for 4 h and radioactivity emerging from delineated brain area was quantified using the Beta vision program (Biospace, Paris). Specific binding was determined as the difference between total binding in the striatum and non-specific binding in the cerebellum. Percentage receptor occupancy of the drug administered to the animal corresponded to 100% minus the percentage receptor labeled in the treated animal. For the determination of ED50-values, the percentage of receptor occupancy was plotted against dose and the sigmoidal log dose-effect curve of best fit was calculated by non-linear regression analysis, using the GraphPad Prism program.

hPDE3B = assay: In vitro assay PDE3 (SPA, 3H-cAMP); assay type: biochemical, human; design: hPDE3B Emax: unit not given here; conditions: for hPDE3B pIC50: 0.4 μM cAMP substrate
[1] = sc, read-out: PDE2 occupancy at 10 mg/kg, route SC (subcutaneous), 10 mg/kg, male Wistar rats, striatum, percentage occupancy

T1 sequence (O00408 whole entry): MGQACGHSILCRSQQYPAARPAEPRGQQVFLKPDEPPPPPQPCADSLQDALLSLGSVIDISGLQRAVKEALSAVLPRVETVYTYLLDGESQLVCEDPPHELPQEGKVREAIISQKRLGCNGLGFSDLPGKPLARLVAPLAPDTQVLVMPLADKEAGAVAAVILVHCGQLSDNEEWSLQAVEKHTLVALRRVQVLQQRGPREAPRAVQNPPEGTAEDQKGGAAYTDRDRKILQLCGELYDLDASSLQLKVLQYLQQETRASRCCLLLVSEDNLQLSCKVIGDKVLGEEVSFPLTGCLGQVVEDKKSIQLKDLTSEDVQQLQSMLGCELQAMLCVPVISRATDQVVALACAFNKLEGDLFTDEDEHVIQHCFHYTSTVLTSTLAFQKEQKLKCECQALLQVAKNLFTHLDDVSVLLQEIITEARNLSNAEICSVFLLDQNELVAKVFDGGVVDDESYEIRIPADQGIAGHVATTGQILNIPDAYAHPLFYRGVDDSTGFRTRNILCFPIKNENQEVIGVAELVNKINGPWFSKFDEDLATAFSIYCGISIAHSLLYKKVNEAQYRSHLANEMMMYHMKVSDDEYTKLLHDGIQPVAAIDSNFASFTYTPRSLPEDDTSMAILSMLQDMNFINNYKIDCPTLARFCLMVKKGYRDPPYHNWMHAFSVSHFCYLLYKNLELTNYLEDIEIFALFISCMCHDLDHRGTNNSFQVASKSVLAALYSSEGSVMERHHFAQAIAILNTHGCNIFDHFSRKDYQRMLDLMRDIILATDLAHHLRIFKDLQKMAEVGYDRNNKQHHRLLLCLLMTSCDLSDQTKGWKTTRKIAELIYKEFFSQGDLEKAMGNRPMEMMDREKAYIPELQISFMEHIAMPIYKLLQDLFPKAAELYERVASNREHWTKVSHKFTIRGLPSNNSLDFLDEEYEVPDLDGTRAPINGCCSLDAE
Sequence of hPDE10A2 (Q9Y233 267-1055): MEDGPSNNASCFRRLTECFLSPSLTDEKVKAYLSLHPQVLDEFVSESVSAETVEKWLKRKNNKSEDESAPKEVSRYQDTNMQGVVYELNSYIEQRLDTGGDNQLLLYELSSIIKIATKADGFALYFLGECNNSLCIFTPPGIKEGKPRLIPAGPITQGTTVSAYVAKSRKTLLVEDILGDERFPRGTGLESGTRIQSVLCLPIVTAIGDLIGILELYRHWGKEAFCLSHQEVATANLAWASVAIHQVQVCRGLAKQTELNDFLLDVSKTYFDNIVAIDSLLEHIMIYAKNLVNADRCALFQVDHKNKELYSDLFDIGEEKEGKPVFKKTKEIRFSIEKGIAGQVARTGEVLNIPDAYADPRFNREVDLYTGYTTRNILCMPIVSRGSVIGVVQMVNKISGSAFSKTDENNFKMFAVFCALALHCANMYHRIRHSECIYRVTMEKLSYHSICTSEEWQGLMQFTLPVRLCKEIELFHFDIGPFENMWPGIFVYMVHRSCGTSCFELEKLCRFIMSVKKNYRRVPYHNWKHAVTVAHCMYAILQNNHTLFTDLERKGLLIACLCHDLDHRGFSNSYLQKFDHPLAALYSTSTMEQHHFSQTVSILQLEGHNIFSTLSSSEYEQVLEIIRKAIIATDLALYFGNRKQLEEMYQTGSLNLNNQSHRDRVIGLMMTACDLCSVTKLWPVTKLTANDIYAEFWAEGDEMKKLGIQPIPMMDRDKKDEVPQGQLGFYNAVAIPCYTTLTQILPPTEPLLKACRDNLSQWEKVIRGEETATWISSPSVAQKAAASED

Row | Structure (SMILES) | IC50 (hPDE10A2) [nM] | Emax (hPDE10A2) [%] | IC50 (hPDE2A) [nM] | Emax (hPDE2A) [%] | receptor occupancy at 10 mg/kg (PDE2A; po, read-out: PDE2 occupancy at 10 mg/kg) [%] | hPDE3B Emax (hPDE3B) | hPDE3B pIC50 (hPDE3B) | IC50 (hPDE2A; 10 μM cGMP substrate, read-out: hPDE2A pIC50 (converted)) [nM] | receptor occupancy at 10 mg/kg (PDE2A; [1]) [%] | receptor occupancy at 10 mg/kg (PDE2A; route SC (subcutaneous), 10 mg/kg, male Wistar rats, striatum, percentage occupancy, read-out: PDE2 occupancy at 10 mg/kg) [%] | ED50 (PDE2A; po, read-out: PDE occupancy ED50, route PO (oral), male Wistar rats, dose producing 50% occupancy) [mg/kg]
1 | C[C@@H]1CCN(c2ccc(C#N)cn2)C[C@H]1c1cc(C(F)F)nc2ncnn12 [Compound 35] | 1380 | 85 | 162 | 99 | 0 | 31 | <5 | – | – | – | –
2 | C[C@@H]1CCN(c2nccc3ccc(O)cc23)C[C@H]1c1cc(C(F)F)nc2ncnn12 [Compound 18] | 331 | 97 | – | 101 | – | 65 | 5.14 | 25.1 | -6 | – | –
3 | C[C@@H]1CCN(c2ccc(F)cn2)C[C@H]1c1cc(C(F)F)nc2ncnn12 [Compound 36] | 1510 | 84 | 245 | 100 | – | 56 | 5.01 | – | – | – | –
4 | C[C@@H]1CCN(c2nccc3ccc(F)cc23)C[C@H]1c1cc(C(F)F)nc2ncnn12 [Compound 14] | 389 | 98 | 17 | 101 | – | 62 | 5.29 | – | – | – | –
5 | Cc1cc([C@@H]2CN(c3nccc4ccccc34)CC[C@H]2C)n2ncnc2n1 [Compound 15] | 162 | 98 | 17.4 | 100 | – | 69 | 5.21 | – | – | – | –
6 | Cc1cccc2ccnc(N3CC[C@@H](C)C(c4cc(C(F)F)nc5ncnn45)C3)c12 (some centres unmarked) [Compound 41] | 4680 | 76 | 309 | 99 | – | 65 | 5.14 | – | – | -8 | –
7 | COc1cnc(N2CC[C@@H](C)[C@H](c3cc(C(F)F)nc4ncnn34)C2)c2ccccc12 [Compound 8] | 1020 | 97 | 10.7 | 101 | – | 73 | 5.22 | – | – | – | –
8 | CCCCOc1ccnc(N2CC[C@@H](C)[C@H](c3cc(C(F)F)nc4ncnn34)C2)c1 [Compound 11] | 355 | 97 | 13.8 | 99 | – | 99 | 6.02 | – | – | – | –
9 | C[C@@H]1CCN(c2nccc3ccccc23)C[C@H]1c1cc(C(F)F)nc2ncnn12 [Compound 7] | 617 | 98 | 10.7 | 101 | – | 69 | 5.22 | – | 81 | – | 29
10 | CC(C)Oc1cccnc1N1CC[C@H](C)[C@@H](c2cc(C(F)F)nc3ncnn23)C1.Cl [Compound 34] | > 10000 | 33 | 2400 | 30 | – | 2 | <5 | – | – | – | –
11 | COc1ccnc(N2CC[C@@H](C)[C@H](c3cc(C(F)F)nc4ncnn34)C2)c1OC.Cl [Compound 33] | 1700 | 82 | 166 | 89 | – | 40 | <5 | – | – | – | –
12 | C[C@@H]1CCN(c2ccc(Cl)cn2)C[C@H]1c1cc(C(F)F)nc2ncnn12 [Compound 25] | 692 | 92 | 83.2 | 101 | – | 45 | <5 | – | – | – | –
13 | FC(F)c1cc([C@H]2CC[C@H]3CC[C@@H]2N3c2c(Br)ccc3ccncc23)n2ncnc2n1 [Compound 5] | 427 | 97 | 6.76 | 100 | – | 76 | 5.27 | – | – | – | –
14 | C[C@@H]1CCN(c2ncc(C(F)(F)F)cc2Br)C[C@H]1c1cc(C(F)F)nc2ncnn12 [Compound 19] | 417 | 96 | 30.2 | 100 | – | 38 | <5 | – | – | – | –
15 | CC(C)Oc1cccnc1N1CC[C@@H](C)[C@H](c2cc(C(F)F)nc3ncnn23)C1.Cl [Compound 31] | 1290 | 91 | 257 | 81 | – | 27 | <5 | – | – | – | –
16 | Cc1cccc(N2CC[C@@H](C)C(c3cc(C(F)F)nc4ncnn34)C2)n1 (some centres unmarked) [Compound 39] | 1290 | 87 | 145 | 99 | – | 58 | 5.13 | – | – | – | –
17 | C[C@@H]1CCN(c2cccc(C(F)(F)F)n2)C[C@H]1c1cc(C(F)F)nc2ncnn12 [Compound 26] | 457 | 95 | 91.2 | 99 | – | 80 | 5.43 | – | – | – | –
18 | C[C@@H]1CCN(c2ncccc2Cl)C[C@H]1c1cc(C(F)F)nc2ncnn12 [Compound 28] | 692 | 90 | 110 | 99 | – | 50 | 4.96 | – | – | – | –
19 | C[C@@H]1CCN(c2ccc(C(F)(F)F)cn2)C[C@H]1c1cc(C(F)F)nc2ncnn12 [Compound 38] | 759 | 92 | 170 | 99 | – | 49 | <5 | – | – | – | –
20 | C[C@@H]1CCN(c2cccc(C#N)n2)C[C@H]1c1cc(C(F)F)nc2ncnn12 [Compound 24] | 575 | 94 | 79.4 | 100 | – | 68 | 5.17 | – | – | – | –
